In article PMC5522529, “Mechanisms of Paradoxical Activation of AMPK by the Kinase Inhibitors SU6656 and Sorafenib” (Cell Chemical Biology, 2017):
Where two headings read alike, the source gives them in different places.

Assays:
[1] = target: α2 kinase domain (α2-KD, residues 1–310) (Homo sapiens, UniProt P54646); settings: read-out: Km for ATP; α2-KD phosphorylated using CaMKK2
[2] = tested on: AMPK; assay: AMPK activity and Thr172 phosphorylation in HEK293 cells; type: cell-based, human; settings: 1 hr
Protocol: Figure 1 SU6656 Activates AMPK but Not AMPK-Related Kinases (A) HEK293 cells were incubated with the indicated concentrations of SU6656 or berberine (300 μM) for 1 hr; total AMPK activity was assayed in immunoprecipitates (top; mean ± SEM, n = 4), and phosphorylation of AMPK (Thr172), ACC (Ser80), and Raptor (Ser792) analyzed by western blotting (bottom; n = 2). (B) HEK293 cells were incubated with 100 μM SU6656 (1 hr), AMPK complexes containing α1, α2, β1, and β2 immunoprecipitated using isoform-specific antibodies, and AMPK activity measured (mean ± SEM, n = 4). (C) HeLa cells stably expressing LKB1 ([Fogarty et al., 2010]) were incubated with 100 μM SU6656 for 1 hr, AMPK or individual ARKs immunoprecipitated, and kinase assays carried out (antibodies that distinguish MARK2/MARK3 were not available, so they were assayed together). Results are means ± SEM (n = 2). In all panels, asterisks indicate significant differences from controls without SU6656. *p < 0.05, **p < 0.01, ****p < 0.0001. […]
Endogenous AMPK was immunoprecipitated using the specified antibodies (for total AMPK, an equal mixture of anti-α1 and –α2 antibodies) and assayed at 200 μM ATP ([Hardie et al., 2000], [Towler et al., 2008]) using the AMARA peptide ([Dale et al., 1995]) as substrate, except for assays of allosteric activation by AMP (Figure 5A) where the SAMS peptide was used as substrate with 2 mM ATP ([Gowans et al., 2013]). The AMPK-related kinases SIK1, SIK2, SIK3, SNARK, MARK2/3 and MARK4 were immunoprecipitated and assayed as previously described ([Lizcano et al., 2004]) in lysates of Hela cells stably expressing LKB1 ([Fogarty et al., 2010]). LKB1 was assayed using the LKBtide peptide as substrate ([Sakamoto et al., 2004]).

[3] = tested on: ACC; assay: ACC phosphorylation in HEK293 cells (western blot); type: cell-based, human; settings: 1 hr
Protocol: Figure 1 SU6656 Activates AMPK but Not AMPK-Related Kinases (A) HEK293 cells were incubated with the indicated concentrations of SU6656 or berberine (300 μM) for 1 hr; total AMPK activity was assayed in immunoprecipitates (top; mean ± SEM, n = 4), and phosphorylation of AMPK (Thr172), ACC (Ser80), and Raptor (Ser792) analyzed by western blotting (bottom; n = 2). (B) HEK293 cells were incubated with 100 μM SU6656 (1 hr), AMPK complexes containing α1, α2, β1, and β2 immunoprecipitated using isoform-specific antibodies, and AMPK activity measured (mean ± SEM, n = 4). (C) HeLa cells stably expressing LKB1 ([Fogarty et al., 2010]) were incubated with 100 μM SU6656 for 1 hr, AMPK or individual ARKs immunoprecipitated, and kinase assays carried out (antibodies that distinguish MARK2/MARK3 were not available, so they were assayed together). Results are means ± SEM (n = 2). In all panels, asterisks indicate significant differences from controls without SU6656. *p < 0.05, **p < 0.01, ****p < 0.0001.
(B) WT or RG cells were treated as in (A) and nucleotides extracted for analysis (mean ± SD, n = 3). […] (E) (See also Figure S2) Time courses of cellular oxygen uptake before and after addition of the indicated concentrations of sorafenib (SO, μM), SU6656 (100 μM) or phenformin (PHEN, 10 mM) (mean ± SEM, n = 4). (F) Effect of various concentrations of sorafenib or phenformin (10 mM) on activation (top, mean ± SEM, n = 3) or phosphorylation (bottom) of AMPK in cells expressing wild-type AMPK-γ2 (WT) or the R531G mutant AMPK-γ2 (RG). In all panels, asterisks show significant differences from DMSO controls (ns, not significant). […]
Cells were incubated for 60 min and AMPK activity measured; results in the top panel are means ± SEM (n = 8), with significant differences from the DMSO control indicated (ns, not significant). […]
SDS-PAGE was performed using precast Bis-Tris 4–12% gradient polyacrylamide gels in the MOPS buffer system (ThermoFisher Scientific). […] Protein concentrations were determined by Coomassie Blue binding with bovine serum albumin as standard ([Bradford, 1976]). […]

[4] = tested on: HEK293 cells; assay: Cellular AMP:ATP and ADP:ATP ratios; type: cell-based, human; settings: 1 hr
Protocol: (B) WT or RG cells were treated as in (A) and nucleotides extracted for analysis (mean ± SD, n = 3). […] (E) (See also Figure S2) Time courses of cellular oxygen uptake before and after addition of the indicated concentrations of sorafenib (SO, μM), SU6656 (100 μM) or phenformin (PHEN, 10 mM) (mean ± SEM, n = 4). (F) Effect of various concentrations of sorafenib or phenformin (10 mM) on activation (top, mean ± SEM, n = 3) or phosphorylation (bottom) of AMPK in cells expressing wild-type AMPK-γ2 (WT) or the R531G mutant AMPK-γ2 (RG). In all panels, asterisks show significant differences from DMSO controls (ns, not significant). In (B), daggers (†) show significant differences between results in WT and RG cells. *p < 0.05, **p < 0.01, ***p < 0.001, ****p < 0.0001, ^††††p < 0.0001.
Cells were incubated for 60 min and AMPK activity measured; results in the top panel are means ± SEM (n = 8), with significant differences from the DMSO control indicated (ns, not significant). The bottom panels show western blots from the same experiment (n = 2). (B) Analysis of AMP:ATP and ADP:ATP ratios from a parallel experiment to that in (A). Results are means ± SEM (n = 3), with significant differences from the DMSO control indicated. *p < 0.05, **p < 0.01, ****p < 0.0001.
The levels of AMP, ADP and ATP were measured using a TSQ Quantiva interfaced with Ultimate 3000 Liquid Chromatography system (ThermoScientific), equipped with a porous graphitic carbon column (HyperCarb 30x1mm ID 3 μm; Part No: C-35003-031030, Thermo-Scientific). Mobile phase buffer A consisted of 0.3% (v/v) formic acid adjusted to pH 9 with ammonia prior to a 1:10 dilution. Mobile phase buffer B was 80% (v/v) acetonitrile. The column was maintained at a controlled temperature of 30°C and was equilibrated with 10% buffer B for 5 minutes at a constant flow rate of 0.06 mL/min. Aliquots of 1 μL of each sample were loaded onto the column and compounds eluted with a linear gradient of 10%-60% buffer B over 9 min. Buffer B was then increased to 100% within 1 min, and the column washed for 5 min with 100% Buffer B. Eluents were sprayed into the TSQ Quantiva using Ion Max NG ion source with ion transfer tube temperature set to 350°C and vaporizer temperature 125°C. The TSQ Quantiva was run in negative mode with a spray voltage of 2600, sheath gas 40 and Aux gas 10. Levels of ATP, ADP and AMP were measured using multiple reactions monitoring mode (MRM) with optimised collision energies and radio frequencies previously determined by infusing pure compounds. Three transitions were used to monitor each of the three compounds, ATP (505.92>158.98, 505.92>408.12 and 505.92>426.12), ADP (426.98>158.98, 426.98>328.78 and 426.98>409.09) and AMP (345.96>134.20, 345.96>151.27 and 345.96>211.12).

[5] = tested on: LKB1 versus AMPK; set-up: method as in MRC Kinase Inhibitor Database; settings: ref MRC Kinase Inhibitor Database; cited from earlier work
[6] = tested on: Erk1/Erk2; assay: Erk1/Erk2 phosphorylation in HEK293 cells (western blot); type: cell-based, human; settings: SU6656 100 μM, PP2 100 nM
[7] = tested on: AMPK; type: cell-based, mouse; settings: SYF cells, 1 hr
Protocol: We next tested the effect of SU6656 in SYF cells, which are mouse embryo fibroblasts (MEFs) with null alleles for Src, Yes, and Fyn, the three Src kinases expressed in MEFs ([Klinghoffer et al., 1999]).
Top: AMPK activity (mean ± SEM, n = 4); bottom: western blots showing phosphorylation of Thr172 on AMPK, and of ERK1/2, in cells treated with DMSO (control), SU6656 (100 μM), or PP2 (100 nM) (n = 2). (B) As (A), but in SYF cells. (C) HeLa cells were transfected with DNAs encoding GFP alone, or GFP fused to WT, Y261F/Y365F (FF), or Y36F/Y261F/Y365F (FFF) mutants of LKB1; cells were treated with increasing concentrations of SU6656 for 1 hr and AMPK activity determined (mean ± SEM, n = 4). See also Figure S1. (D) HEK293 cells were transfected with DNAs encoding FLAG-tagged AMPK-α2 with or without a Y436F mutation. Cells were incubated with DMSO (control), 100 μM SU6656, 10 mM phenformin, or 10 μM A23187 for 1 hr; AMPK complexes were immunoprecipitated using anti-FLAG antibody and assayed. The top panels show kinase activities (mean ± SD, n = 3); the bottom panels show blots from the same experiment (n = 2). In all panels, asterisks indicate significant differences from DMSO controls; in (D), there were no significant differences between the WT and Y463F mutant. **p < 0.01, ****p < 0.0001. […]

[8] = tested on: Erk1/2; assay: Erk1/2 phosphorylation in SYF cells; type: cell-based, mouse; settings: SU6656 100 μM, PP2 100 nM

Chain of α2 kinase domain (α2-KD, residues 1–310) (P54646 1-310): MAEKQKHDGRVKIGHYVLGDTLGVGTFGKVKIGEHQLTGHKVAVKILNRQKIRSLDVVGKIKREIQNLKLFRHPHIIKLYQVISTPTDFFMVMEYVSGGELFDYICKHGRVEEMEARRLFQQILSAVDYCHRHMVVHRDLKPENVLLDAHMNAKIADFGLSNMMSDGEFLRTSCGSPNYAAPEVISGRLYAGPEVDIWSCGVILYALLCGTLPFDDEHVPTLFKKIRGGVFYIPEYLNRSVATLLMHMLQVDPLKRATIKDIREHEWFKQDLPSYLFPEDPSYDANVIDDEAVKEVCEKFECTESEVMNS

Compound: Nc1ncnc2c1ncn2[C@@H]1O[C@H](COP(=O)(O)OP(=O)(O)OP(=O)(O)O)[C@@H](O)[C@H]1O [ATP]
- Km [1]: 151 ± 7 µM

Compound: CC1(C)C(=O)N([C@H]2CCc3c(O)cccc32)c2nc(Nc3cccc(CN4CCCC4)c3)ncc21 [MRT199665]
- AMPK activity / Thr172 phosphorylation [2]: modest increase in AMPK activity and Thr172 phosphorylation
- ACC phosphorylation [3]: inhibition of phosphorylation
- cellular AMP:ATP and ADP:ATP ratios [4]: not associated with changes in AMP:ATP or ADP:ATP ratios
- potency of LKB1 inhibition relative to AMPK inhibition [5]: inhibition of LKB1 was less potent than that of AMPK

Compound: CC(C)(C)n1nc(-c2ccc(Cl)cc2)c2c(N)ncnc21 [PP2]
- AMPK activity / Thr172 phosphorylation [2]: had no effect on AMPK activity or Thr172 phosphorylation
- Erk1/Erk2 phosphorylation [6]: reduced phosphorylation of Erk1/Erk2
- AMPK activity / Thr172 phosphorylation [7]: still had no effect on AMPK
- Erk1/2 phosphorylation [8]: had no effect on Erk1/2

Compound: c1cc(-c2cnn3cc(-c4ccc(OCCN5CCCCC5)cc4)cnc23)ccn1 [compound C]
- potency of LKB1 inhibition relative to AMPK inhibition [5]: inhibit LKB1 with similar potency to AMPK
